Measured values published in article PMC9609496, “Synthesis, In Vitro Anti-Microbial Analysis and Molecular Docking Study of Aliphatic Hydrazide-Based Benzene Sulphonamide Derivatives as Potent Inhibitors of α-Glucosidase and Urease” (Molecules, 2022).
Read-outs that look alike come from different tables or passages of the source.

Key:
urease = urease (Canavalia ensiformis, UniProt P07374); experiment: biochemical; format: biochemical
Procedure: Figure S6. High resolution Proton NMR Spectrum of 3-chloro-N'- undecanoylbenzenesulfonohydrazide (4.13).
4.16. Urease Assay Protocol
The reaction mixtures, which included […] of enzyme solution and […] of buffers containing 100 mM urea, were incubated in 96-well plates at 30 °C for 15 min with […] of the test compounds (0.5 mM concentration). The urea concentrations were adjusted from 2 -24 mM for the kinetics evaluation. By quantifying ammonia production with Weatherburn's indophenol technique, urease activity was determined.. To each well, 45 μL of the phenol reagent (1% w/v phenol and 0.005% w/v sodium nitroprusside) and 70 μL of the alkali reagent (0.5% w/v NaOH and 0.1% active chloride NaOCl) were added. Using a microplate reader, the rising absorbance at 630 nm was observed after 50 minutes (Molecular Device, USA). In a final volume of […], each reaction was carried out three times. Using the software SoftMaxPro, the results (change in absorbance per minute) were processed (molecular Device, USA). The experiments were run at pH 6.8 throughout. The formula 100-(ODtest well/ODcontrol) 100 was […]
used to calculate the percentage of inhibition. Thiourea was used as the standard inhibitor for […]
4.17. α-Glucosidase Inhibitory Assay Protocol […]
phosphate buffer (pH=6.8), were incubated at 37°C for 15 min in a 96-well plate. 20 µl of p-nitrophenyl—D-glucopyranoside solution was further added as a substrate and again incubated for 20 min at 37 °C. Sodium carbonate (50 µl of 0.1M) was added to terminate the reaction. P-nitrophenol was liberated, during the reaction which was measured at 405n m u sing an ELISA […]
conditions by omitting test samples. All the experiments were carried out in triplicates. The percentage inhibition was calculated by the formula.
% Inhibition = [(Ac – As) /Ac] × 100 Ac-absorbance for control, As-absorbance for standard.
4.18. Molecular Docking Assay
In this study the synthesized compounds were analyzed against α-amylase and α-glucosidase enzyme. […]

Alternaria alternate = experiment: Anti-fungal activity; format: cell-based; settings: against Alternaria alternate, standard drug Terinafine
[1] = read-out: Anti-Urease IC50 (µM ± SEM)

Sequence of urease (P07374 whole entry, looked up): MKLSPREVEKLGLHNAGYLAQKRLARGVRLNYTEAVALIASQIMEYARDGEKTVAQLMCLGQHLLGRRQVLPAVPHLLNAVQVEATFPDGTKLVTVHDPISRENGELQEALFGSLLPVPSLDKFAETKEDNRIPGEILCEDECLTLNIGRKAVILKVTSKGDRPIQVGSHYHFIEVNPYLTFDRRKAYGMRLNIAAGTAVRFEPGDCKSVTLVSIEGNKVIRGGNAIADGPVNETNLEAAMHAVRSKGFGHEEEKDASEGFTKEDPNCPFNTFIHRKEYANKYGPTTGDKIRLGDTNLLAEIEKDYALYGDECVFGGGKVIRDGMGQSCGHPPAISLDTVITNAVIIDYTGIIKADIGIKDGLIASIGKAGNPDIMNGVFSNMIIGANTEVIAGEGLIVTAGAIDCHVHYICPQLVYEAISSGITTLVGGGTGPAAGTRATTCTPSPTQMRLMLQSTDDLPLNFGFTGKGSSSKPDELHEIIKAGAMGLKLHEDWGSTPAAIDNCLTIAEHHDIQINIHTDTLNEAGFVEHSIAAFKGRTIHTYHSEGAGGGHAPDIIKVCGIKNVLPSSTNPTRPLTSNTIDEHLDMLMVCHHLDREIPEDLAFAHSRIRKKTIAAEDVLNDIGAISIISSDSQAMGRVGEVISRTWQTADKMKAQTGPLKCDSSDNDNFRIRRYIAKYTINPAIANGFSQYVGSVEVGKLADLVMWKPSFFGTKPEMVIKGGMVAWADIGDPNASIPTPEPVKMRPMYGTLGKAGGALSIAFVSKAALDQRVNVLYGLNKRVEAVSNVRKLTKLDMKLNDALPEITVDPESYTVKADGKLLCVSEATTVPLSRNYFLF

**Q.** What does the source list for `CCCCC(=O)NNS(=O)(=O)c1ccc(F)cc1[N+](=O)[O-]` [Analog 5]?
**A.** IC50 (urease): 2.1 ± 0.1 µM; anti-fungal activity (Alternaria alternate): exhibited anti-fungal profiles

**Q.** Which results are given for `CCCCCCCCCCC(=O)NNS(=O)(=O)c1cccc(Cl)c1` [Analog 13, 3-chloro-N'-undecanoylbenzenesulfonohydrazide]?
**A.** IC50 (urease; [1]): 18.4 ± 0.3 µM; melting point: 168 to 169 °C

**Q.** Which IC50 (urease; [1]) does the source give for `NC(N)=S` [thiourea, reference compound] here?
**A.** 7.8 µM
